In patent US20180320217A1, “METHODS FOR SAMPLING AND MEASURING ORAL LAVAGE PROTEINS” (The Procter & Gamble Company, priority 2017, published 2018):
Where a name gives a salt, the structure may show the parent alone.

Experiments:
[1] = Formation of formazan dyes: control buffer and 1-Methoxy PMS, absence of malate (TABLE 21); assay type: biochemical; conditions: for Absorbance, formation of formazan dyes (Means): control buffer and 1-Methoxy PMS, absence of malate, mean of three experiments
[2] = Formation of formazan dyes: control buffer, malate and 1-Methoxy PMS (TABLE 22); assay type: biochemical; conditions: control buffer, malate and 1-Methoxy PMS, mean of three experiments
diaphorase [3] = assay: Formation of formazan dyes: NADH, diaphorase and malate (TABLE 8); assay type: biochemical, Clostridium kluyveri; conditions: NADH, diaphorase and malate
diaphorase [4] = assay: Formation of formazan dyes: only diaphorase, not malate (TABLE 13); assay type: biochemical, Clostridium kluyveri; conditions: mean of three experiments
[5] = tested on: Malate dehydrogenase and diaphorase; assay: Formation of formazan dyes: Malate dehydrogenase, diaphorase and malate (TABLE 10); assay type: biochemical, pig heart
[6] = Formation of formazan dyes: NADH, malate and 1-methoxy PMS (TABLE 16); assay type: biochemical; conditions: NADH, malate and 1-methoxy PMS, mean of three experiments
[7] = Formation of formazan dyes: NADH and 1-methoxy PMS, absence of malate (TABLE 15); assay type: biochemical; conditions: NADH and 1-methoxy PMS, absence of malate, mean of three experiments
Malate dehydrogenase [8] = target: T1, Malate dehydrogenase (Sus scrofa, UniProt P00346); assay: Formation of formazan dyes: Malate dehydrogenase, malate and 1-Methoxy PMS (TABLE 18); assay type: biochemical, pig heart; design: L-malate dehydrogenase (pig heart); purchased Sigma-Aldrich 10127248001 / 10127914001; conditions: Malate dehydrogenase, malate and 1-Methoxy PMS, mean of three experiments
T1 sequence (P00346 25-338): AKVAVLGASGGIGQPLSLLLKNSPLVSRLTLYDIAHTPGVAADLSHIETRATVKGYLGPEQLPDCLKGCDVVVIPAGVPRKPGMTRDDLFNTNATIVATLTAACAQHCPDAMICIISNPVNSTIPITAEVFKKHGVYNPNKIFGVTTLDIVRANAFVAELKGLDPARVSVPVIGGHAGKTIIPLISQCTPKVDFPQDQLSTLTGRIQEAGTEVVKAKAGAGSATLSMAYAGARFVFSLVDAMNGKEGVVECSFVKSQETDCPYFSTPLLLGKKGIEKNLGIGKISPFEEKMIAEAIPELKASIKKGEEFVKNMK

diaphorase [9] = assay: Formation of formazan dyes: only diaphorase and malate (TABLE 14); assay type: biochemical, Clostridium kluyveri; conditions: mean of three experiments
[10] = tested on: Malate dehydrogenase and diaphorase; assay: Formation of formazan dyes: Malate dehydrogenase and diaphorase, absence of malate (TABLE 9); assay type: biochemical, pig heart
Malate dehydrogenase [11] = target: T1, Malate dehydrogenase; assay: Formation of formazan dyes: Malate dehydrogenase and 1-Methoxy PMS, absence of malate (TABLE 17); assay type: biochemical, pig heart; design: L-malate dehydrogenase (pig heart); purchased Sigma-Aldrich 10127248001 / 10127914001; conditions: Malate dehydrogenase and 1-Methoxy PMS, absence of malate, mean of three experiments
oral lavage = assay: Formation of formazan dyes: oral lavage and diaphorase, not malate (TABLE 11); assay type: biochemical, human

Cc1nc(-[n+]2nc(-c3cccc(OCC(=O)O)c3)nn2-c2ccc(S(=O)(=O)[O-])cc2)sc1C [MTS, 3-(4,5-dimethylthiazol-2-yl)-5-(3-carboxymethoxyphenyl)-2-(4-sulfophenyl)-2H-tetrazolium, inner salt]
Absorbance, formation of formazan dyes (Means) ([1]; 0 h): 0.36 | Absorbance, formation of formazan dyes (Means) ([1]; 1 h): 0.42 | Absorbance, formation of formazan dyes (Means) ([1]; 2 h): 0.41 | Absorbance, formation of formazan dyes (Means) ([1]; 3 h): 0.43 | Absorbance, formation of formazan dyes (Means) ([1]; 4 h): 0.43 | Absorbance, formation of formazan dyes (Means) ([1]; 6 h): 0.48 | Absorbance, formation of formazan dyes (Means) ([1]; 8 h): 0.59 | Absorbance, formation of formazan dyes (Means) ([1]; 10 h): 0.63 | Absorbance, formation of formazan dyes (Means) ([1]; 12 h): 0.66 | conversion into colored formazan dyes in assay buffer containing 1-methoxy PMS ([1]; control buffer, absence of malate (TABLE 21) or presence of malate (TABLE 22)): slowly catalyze the conversion of tetrazolium salts into colored formazan dyes | Means absorbance 0 h ([2]; 0 h): 0.20 | Means absorbance 1 h ([2]; 1 h): 0.20 | Means absorbance 2 h ([2]; 2 h): 0.21 | Means absorbance 3 h ([2]; 3 h): 0.23 | Means absorbance 4 h ([2]; 4 h): 0.25 | Means absorbance 6 h ([2]; 6 h): 0.33 | Means absorbance 8 h ([2]; 8 h): 0.36 | Means absorbance 10 h ([2]; 10 h): 0.47 | Means absorbance 12 h ([2]; 12 h): 0.50 | Formation of formazan dyes, absorbance, Means 0 h (diaphorase [3]; 0 h): 3.01 | Formation of formazan dyes, absorbance, Means 1 h (diaphorase [3]; 1 h): 3.01 | Formation of formazan dyes, absorbance, Means 2 h (diaphorase [3]; 2 h): 3.00 | Formation of formazan dyes, absorbance, Means 3 h (diaphorase [3]; 3 h): 3.00 | Formation of formazan dyes, absorbance, Means 4 h (diaphorase [3]; 4 h): 3.07 | Formation of formazan dyes, absorbance, Means 6 h (diaphorase [3]; 6 h): 3.09 | Formation of formazan dyes, absorbance, Means 8 h (diaphorase [3]; 8 h): 3.17 | Formation of formazan dyes, absorbance, Means 10 h (diaphorase [3]; 10 h): 3.08 | Formation of formazan dyes, absorbance, Means 12 h (diaphorase [3]; 12 h): 3.20 | Absorbance, formation of formazan dyes (Means) (diaphorase [4]; 0 h): 0.16 | Absorbance, formation of formazan dyes (Means) (diaphorase [4]; 1 h): 0.25 | Absorbance, formation of formazan dyes (Means) (diaphorase [4]; 2 h): 0.26 | Absorbance, formation of formazan dyes (Means) (diaphorase [4]; 3 h): 0.22 | Absorbance, formation of formazan dyes (Means) (diaphorase [4]; 4 h): 0.17 | Absorbance, formation of formazan dyes (Means) (diaphorase [4]; 6 h): 0.20 | Absorbance, formation of formazan dyes (Means) (diaphorase [4]; 8 h): 0.16 | Absorbance, formation of formazan dyes (Means) (diaphorase [4]; 10 h): 0.13 | Absorbance, formation of formazan dyes (Means) (diaphorase [4]; 12 h): 0.14 | Formation of formazan dyes, absorbance, Means 0 h ([5]; Malate dehydrogenase, diaphorase and malate, 0 h): 1.72 | Formation of formazan dyes, absorbance, Means 1 h ([5]; Malate dehydrogenase, diaphorase and malate, 1 h): 2.67 | Formation of formazan dyes, absorbance, Means 2 h ([5]; Malate dehydrogenase, diaphorase and malate, 2 h): 2.93 | Formation of formazan dyes, absorbance, Means 3 h ([5]; Malate dehydrogenase, diaphorase and malate, 3 h): 3.12 | Formation of formazan dyes, absorbance, Means 4 h ([5]; Malate dehydrogenase, diaphorase and malate, 4 h): 3.48 | Formation of formazan dyes, absorbance, Means 6 h ([5]; Malate dehydrogenase, diaphorase and malate, 6 h): 3.67 | Formation of formazan dyes, absorbance, Means 8 h ([5]; Malate dehydrogenase, diaphorase and malate, 8 h): 3.73 | Formation of formazan dyes, absorbance, Means 10 h ([5]; Malate dehydrogenase, diaphorase and malate, 10 h): 3.74 | Formation of formazan dyes, absorbance, Means 12 h ([5]; Malate dehydrogenase, diaphorase and malate, 12 h): 3.71 | conversion to reduced formazan dyes ([5]; malate dehydrogenase, diaphorase and malate (TABLE 10)): converted to reduced formazan dyes in a time-dependent manner | Absorbance, formation of formazan dyes (Means) ([6]; 0 h): 2.33 | Absorbance, formation of formazan dyes (Means) ([6]; 1 h): 2.41 | Absorbance, formation of formazan dyes (Means) ([6]; 2 h): 2.44 | Absorbance, formation of formazan dyes (Means) ([6]; 3 h): 2.47 | Absorbance, formation of formazan dyes (Means) ([6]; 4 h): 2.27 | Absorbance, formation of formazan dyes (Means) ([6]; 6 h): 2.38 | Absorbance, formation of formazan dyes (Means) ([6]; 8 h): 2.41 | Absorbance, formation of formazan dyes (Means) ([6]; 10 h): 2.45 | Absorbance, formation of formazan dyes (Means) ([6]; 12 h): 2.40 | Absorbance, formation of formazan dyes (Means) ([7]; 0 h): 2.31 | Absorbance, formation of formazan dyes (Means) ([7]; 1 h): 2.55 | Absorbance, formation of formazan dyes (Means) ([7]; 2 h): 2.60 | Absorbance, formation of formazan dyes (Means) ([7]; 3 h): 2.59 | Absorbance, formation of formazan dyes (Means) ([7]; 4 h): 2.63 | Absorbance, formation of formazan dyes (Means) ([7]; 6 h): 2.65 | Absorbance, formation of formazan dyes (Means) ([7]; 8 h): 2.69 | Absorbance, formation of formazan dyes (Means) ([7]; 10 h): 2.67 | Absorbance, formation of formazan dyes (Means) ([7]; 12 h): 2.65 | Absorbance, formation of formazan dyes (Means) (Malate dehydrogenase [8]; 0 h): 2.40 | Absorbance, formation of formazan dyes (Means) (Malate dehydrogenase [8]; 1 h): 3.33 | Absorbance, formation of formazan dyes (Means) (Malate dehydrogenase [8]; 2 h): 3.42 | Absorbance, formation of formazan dyes (Means) (Malate dehydrogenase [8]; 3 h): 3.38 | Absorbance, formation of formazan dyes (Means) (Malate dehydrogenase [8]; 4 h): 3.38 | Absorbance, formation of formazan dyes (Means) (Malate dehydrogenase [8]; 6 h): 3.27 | Absorbance, formation of formazan dyes (Means) (Malate dehydrogenase [8]; 8 h): 3.26 | Absorbance, formation of formazan dyes (Means) (Malate dehydrogenase [8]; 10 h): 3.18 | Absorbance, formation of formazan dyes (Means) (Malate dehydrogenase [8]; 12 h): 3.09 | Absorbance, formation of formazan dyes (Means) (diaphorase [9]; 0 h): 0.16 | Absorbance, formation of formazan dyes (Means) (diaphorase [9]; 1 h): 0.22 | Absorbance, formation of formazan dyes (Means) (diaphorase [9]; 2 h): 0.27 | Absorbance, formation of formazan dyes (Means) (diaphorase [9]; 3 h): 0.32 | Absorbance, formation of formazan dyes (Means) (diaphorase [9]; 4 h): 0.46 | Absorbance, formation of formazan dyes (Means) (diaphorase [9]; 6 h): 0.57 | Absorbance, formation of formazan dyes (Means) (diaphorase [9]; 8 h): 0.68 | Absorbance, formation of formazan dyes (Means) (diaphorase [9]; 10 h): 0.79 | Absorbance, formation of formazan dyes (Means) (diaphorase [9]; 12 h): 0.93 | Formation of formazan dyes, absorbance, Means 0 h ([10]; Malate dehydrogenase and diaphorase, absence of malate, 0 h): 0.17 | Formation of formazan dyes, absorbance, Means 1 h ([10]; Malate dehydrogenase and diaphorase, absence of malate, 1 h): 0.24 | Formation of formazan dyes, absorbance, Means 2 h ([10]; Malate dehydrogenase and diaphorase, absence of malate, 2 h): 0.22 | Formation of formazan dyes, absorbance, Means 3 h ([10]; Malate dehydrogenase and diaphorase, absence of malate, 3 h): 0.25 | Formation of formazan dyes, absorbance, Means 4 h ([10]; Malate dehydrogenase and diaphorase, absence of malate, 4 h): 0.21 | Formation of formazan dyes, absorbance, Means 6 h ([10]; Malate dehydrogenase and diaphorase, absence of malate, 6 h): 0.22 | Formation of formazan dyes, absorbance, Means 8 h ([10]; Malate dehydrogenase and diaphorase, absence of malate, 8 h): 0.23 | Formation of formazan dyes, absorbance, Means 10 h ([10]; Malate dehydrogenase and diaphorase, absence of malate, 10 h): 0.26 | Formation of formazan dyes, absorbance, Means 12 h ([10]; Malate dehydrogenase and diaphorase, absence of malate, 12 h): 0.25 | reduction of tetrazolium dye in the absence of substrate malate ([10]; malate dehydrogenase and diaphorase (TABLE 9)): remained largely in oxidized forms | Absorbance, formation of formazan dyes (Means) (Malate dehydrogenase [11]; 0 h): 0.34 | Absorbance, formation of formazan dyes (Means) (Malate dehydrogenase [11]; 1 h): 0.36 | Absorbance, formation of formazan dyes (Means) (Malate dehydrogenase [11]; 2 h): 0.33 | Absorbance, formation of formazan dyes (Means) (Malate dehydrogenase [11]; 3 h): 0.33 | Absorbance, formation of formazan dyes (Means) (Malate dehydrogenase [11]; 4 h): 0.41 | Absorbance, formation of formazan dyes (Means) (Malate dehydrogenase [11]; 6 h): 0.48 | Absorbance, formation of formazan dyes (Means) (Malate dehydrogenase [11]; 8 h): 0.48 | Absorbance, formation of formazan dyes (Means) (Malate dehydrogenase [11]; 10 h): 0.52 | Absorbance, formation of formazan dyes (Means) (Malate dehydrogenase [11]; 12 h): 0.51 | Formation of formazan dyes, absorbance, Means 0 h (oral lavage; oral lavage and diaphorase, not malate, 0 h): 0.70 | Formation of formazan dyes, absorbance, Means 1 h (oral lavage; oral lavage and diaphorase, not malate, 1 h): 0.86 | Formation of formazan dyes, absorbance, Means 2 h (oral lavage; oral lavage and diaphorase, not malate, 2 h): 0.91 | Formation of formazan dyes, absorbance, Means 3 h (oral lavage; oral lavage and diaphorase, not malate, 3 h): 1.00 | Formation of formazan dyes, absorbance, Means 4 h (oral lavage; oral lavage and diaphorase, not malate, 4 h): 1.13 | Formation of formazan dyes, absorbance, Means 6 h (oral lavage; oral lavage and diaphorase, not malate, 6 h): 1.18 | Formation of formazan dyes, absorbance, Means 8 h (oral lavage; oral lavage and diaphorase, not malate, 8 h): 1.21 | Formation of formazan dyes, absorbance, Means 10 h (oral lavage; oral lavage and diaphorase, not malate, 10 h): 1.25 | Formation of formazan dyes, absorbance, Means 12 h (oral lavage; oral lavage and diaphorase, not malate, 12 h): 1.27 | reduction to formazan dyes by pooled oral lavage (oral lavage; pooled oral lavage of high bleeder group, diaphorase, no added malate (TABLE 11)): changed to formazan dyes in a significant amount
